Measured values published in patent US7740841B1, “Therapeutic method for reducing angiogenesis” (Sunnybrook Health Science Center, priority 2000, dated 2010).

Tests used:
[1] = mouse, in vivo; cited from earlier work
[2] = tested on: SK-N-MC neuroepithelioma or SK-N-AS neuroblastoma xenografts; experiment: In vivo tumor growth assessment, subcutaneous xenografts; parameters: species or system CB-17 SCID mice; settings: established ~0.75 cm^3 xenografts; DC101 800 μg i.p. every three days; low-dose vinblastine
Protocol: In vivo tumor growth assessment: SK-N-MC, cells were harvested using 1% Trypsin EDTA (GibcoBRL, Gaithesburg, Md.), and single cell suspension of 2×10^6 cells in 0.2 ml of growth media was injected subcutaneously into the flanks of 4-6 week old CB-17 SCID mice (Charles River, St-Constant, Quebec). Approximately 3 weeks later, most tumors had grown to ˜0.75 cm^3, and mice were randomized into groups of 5 animals. Two independent experiments were performed, each totaling 20 animals in 4 groups. The treatment was as follows:
Group I (Control)—0.4 ml of PBS (DC101 vehicle) i.p. every three days and 0.15 ml injectable saline (vinblastine vehicle) i.p. every three days.
Group II—0.4 ml of 2 mg/ml DC101 antibody (800 μg/mouse) (24) every three days and 0.15 ml of injectable saline i.p. every three days
Group III—vinblastine sulfate 0.75 mg/m^2 i.p. bolus at the start of therapy, followed by 1 mg/m^2/day via subcutaneous Alzet osmotic pumps (Alza Corp, Palo Alto, Calif.) for 3 weeks, followed by maintenance therapy with 0.15 ml of 0.067 mg/ml vinblastine sulfate (1.5 mg/m^2) i.p. every three days, and 0.4 ml of PBS i.p. every three days
Group IV—combination of DC101 and vinblastine at doses identical to the single agent groups. […]

[3] = mouse, in vivo
Protocol: The body weight, tumor size and general clinical status of the animals were recorded every 2-3 days. Perpendicular tumor diameters were measured using a vernier scale caliper and tumor volume was estimated using the formula for ellipsoid: (width^2×length)/2. Growth curves were statistically analyzed using repeated measures ANOVA. […] As required by institutional guidelines, the mice were sacrificed when tumor size reached 1.5 cm^3 or 7.5-10% of their body weight.
To evaluate this aspect of DC101/vinblastine combination therapy, the health status of the mice was monitored. Weight was plotted at regular intervals and considered a surrogate for evaluation of systemic well being, anorexia, or failure to thrive.

[4] = tested on: SK-N-MC cells; experiment: In vitro drug sensitivity, 3H-thymidine incorporation; assay type: cell-based, human; settings: 100-400 ng/ml, 24 hours
Description: (§1) Cells and culture conditions: Neuroblastoma cell lines SK-N-MC, SK-N-AS were obtained from American Type Culture Collection (ATCC) and expanded as a monolayer culture by serial passage on tissue culture plates (Nunc, Denmark) in DMEM, 5% fetal bovine serum (Gibco, Grand Island, N.Y., USA). Human umbilical vein endothelial cells (HUVEC) (Clonetics, San Diego, Calif.) were expanded on 1% gelatin-coated tissue culture plates in MCDB131 culture medium (JRH Biosciences, Lenexa, Kans., USA) supplemented with 5 ng/ml bFGF (R&D, Minneapolis, Minn.), 10 units/ml heparin (Wyeth-Ayerst Canada), 10 ng/ml EGF (UBI, Lake Placid, N.Y.) and 10% fetal bovine serum.
In vitro determination of drug sensitivity: Three thousand cells in 200 μl growth media per well were plated in 96-well flat bottom tissue culture plates (Nunc, Denmark) and incubated at 37° C., 5% CO2 for 24 hours prior to initiation of treatment. The cells were then washed with PBS and treated with 1-500 ng/ml vinblastine sulphate (Calbiochem, La Jolla, Calif.) for 24 hours, in groups of eight wells per dose. […] Incorporated radioactivity was measured on Wallac 1205 BetaPlate Scintillation Counter (Wallac Oy, Finland) and proliferation was expressed as a percentage of ^3H-thymidine in treated cells vs. that in controls. […]

[5] = tested on: bFGF induced vascularization; experiment: In vivo Matrigel plug angiogenesis assay; parameters: species or system Balb/cJ mice; settings: DC101 800 μg i.p. and/or vinblastine 1 mg/m^2 i.p. on day 4 and 7, sacrifice day 10
Protocol: In vivo angiogenesis assessment by the Matrigel plug assay (5,25): Matrigel (Collaborative Biomedical Products, Bedford, Mass.) stored at −20° C., was thawed at 4° C. overnight and mixed with 500 ng/ml bFGF. 0.5 ml of this mixture was then injected subcutaneously into the shaved flanks of twenty 6-8 week old female Balb/cJ mice (Jackson Labs, Bar Harbor, Me.). Five mice, used as negative controls, were injected with Matrigel alone. Three days later, treatment mice were randomized into four groups as follows: • Group I—saline i.p., • Group II—800 μg DC101 i.p. • Group III—1 mg/m^2 vinblastine i.p. • Group IV—combination therapy.
All 25 mice were treated on day 4 and 7 and sacrificed on day 10. Blood samples were collected into heparinized tubes by cardiac puncture, centrifuged immediately following their collection, plasma separated and protected from light at 4° C. […] The following day, the plugs were homogenized, centrifuged at 5000 rpm for 10 minutes and supernatant saved in the dark for analysis of fluorescence. Fluorescence readings were obtained on FL600 Fluorescence Plate Reader using a standard curve created by serial dilution of FITC-dextran used for injection. Angiogenic response was expressed as a ratio of Matrigel plug fluorescence:plasma fluorescence.
To address these questions, we repeated the same fluorescence measurement using an in vivo Matrigel plug angiogenesis assay. […]

[6] = tested on: neuroblastoma xenograft tumors; experiment: Histopathologic analysis of tumors (H/E and TUNEL); assay type: in vivo, CB-17 SCID mice; settings: excised tumors; combination group at 7.5 weeks of treatment
Description: Histology: All tumors were excised, fixed in 10% (v/v) formalin and processed for immunohistochemical analysis. To obtain adequate tissue for the combination treatment group, two mice were sacrificed at 7.5 weeks of treatment. Paraffin blocks were cut to 5 μm sections and stained with haematoxylin/eosin for morphology evaluation and with Apoptosis Detection System (Promega, Madison, Wis.) for assessment of programmed cell death.
Histopathologic analysis: To further elucidate the mechanisms involved in the tumor regression following treatment with vinblastine, DC101, or the combined therapy, tissue histopathology assessment was undertaken. Cancer cells with high nuclear to cytoplasmic ratio form cuffs around central vessels, and apoptotic cells characterized by pyknotic nuclei and cytoplasmic blebbing, are only evident as a thin rim at the periphery of the cuffs. The nuclei of these cells stain strongly for terminal deoxynucleotidyl transferase (TUNEL) reactivity, as expected for cells undergoing apoptosis. […] There is a close similarity of the appearance of H/E and TUNEL stain. […] Rather than a typical single layer of flattened endothelial cells surrounding the vascular lumen in untreated group, we observed edema, and detachment from surrounding basement membrane and leading to complete vascular wall disintegration and tumor cell death.

[7] = tested on: SK-N-AS human neuroblastoma xenografts; experiment: Tumor perfusion by FITC-Dextran fluorescence; assay type: in vivo, CB-17 SCID mice; settings: vinblastine 1 mg/m^2 i.p. and/or DC101 800 μg i.p. every three days, 10 days
Protocol: Relative tumor vascularity assessed by an FITC-Dextran perfusion assay: The method was designed to assess the relative functionality of the tumor vasculature. 2×10^6 SK-N-AS neuroblastoma cells were injected into the flanks of CB-17 SCID mice. Tumors were allowed to grow to approximately 0.75 cm^3 at which point tumor bearing mice were then treated with 1 mg/m^2 vinblastine i.p. every three days, 800 μg DC101 i.p. every three days, combination of the two agents or saline as a control. […] Fluorescence readings were obtained on a FL600 Fluorescence Plate Reader (Bio-tek Instruments Inc., Winooski, Vt., USA), from a standard curve created by serial dilution of the FITC-dextran used for injection. The ratio of tumor fluorescence:plasma fluorescence was assumed to be reflective of the degree of tumor perfusion.
Tumor perfusion by assessment of intravascular fluorescence: To further explore the possibility that tumor regression induced with treatment using DC101 and vinblastine was indeed due to the vascular injury, rather than a direct anti-tumor cell effect, we assessed tumor perfusion directly by using a FITC-Dextran fluorescence method. […]

[8] = tested on: HUVEC; experiment: In vitro drug sensitivity, 3H-thymidine incorporation; assay type: cell-based, human; settings: 24 hours
Description: as §1
(§2) In vitro determination of drug sensitivity: Three thousand cells in 200 μl growth media per well were plated in 96-well flat bottom tissue culture plates (Nunc, Denmark) and incubated at 37° C., 5% CO2 for 24 hours prior to initiation of treatment. […] The cells were then pulsed for 6 hrs with 2 μCi/well of methyl-^3H-thymidine (Amersham Life Science, Buckinghamshire, England). The plates were frozen, thawed and the DNA harvested onto a filtermat using a Titertek Cell Harvester. Incorporated radioactivity was measured on Wallac 1205 BetaPlate Scintillation Counter (Wallac Oy, Finland) and proliferation was expressed as a percentage of ^3H-thymidine in treated cells vs. that in controls.
(§3) All three cell lines were grown in DMEM with […], but the HUVEC were grown on gelatinized plates and in the presence of additional growth factors (bFGF and EGF).

[9] = tested on: SK-N-AS cells; experiment: as above; assay type: cell-based, human; settings: 100-400 ng/ml, 24 hours
Description: as §1, §2, §3

CC[C@]1(O)C[C@@H]2CN(CCc3c([nH]c4ccccc34)[C@@](C(=O)OC)(c3cc4c(cc3OC)N(C)[C@H]3[C@@](O)(C(=O)OC)[C@H](OC(C)=O)[C@]5(CC)C=CCN6CC[C@]43[C@@H]65)C2)C1 [vinblastine, vinblastine sulphate]
MTD in mice relative to MTD in humans [1]: 4-5 times | effect on tumor growth [2]: significant, albeit not sustained, regression of tumor growth | body weight / toxicity profile [3]: some weight gain retardation, but the differences never became significantly different from controls | inhibition of proliferation (3H-thymidine incorporation) [4]: strongly inhibited | bFGF induced vascularization of Matrigel plug (plug:plasma fluorescence) [5]: 62.5 % of the positive control group | tumor histology (H/E, TUNEL apoptosis) [6]: increase in the width of the apoptotic rims | decrease in tumor perfusion (tumor:plasma fluorescence) [7]: 41% | inhibition of proliferation (3H-thymidine incorporation) ([8]; 0.78 ng/ml): retained almost the same degree of inhibitory activity | inhibition of proliferation (3H-thymidine incorporation) ([8]; 100-400 ng/ml): strongly inhibited, especially HUVEC | inhibition of proliferation (3H-thymidine incorporation) [9]: strongly inhibited
